Source: PMC10141580, “Cyclic Dichalcogenides Extend the Reach of Bioreductive Prodrugs to Harness Thiol/Disulfide Oxidoreductases: Applications to seco-Duocarmycins Targeting the Thioredoxin System” (ACS Central Science, 2023)
Like-named read-outs stand apart in the source and are kept apart here.

Tested on: NCI-60 standardized human tumor cell line panel
Assay: cells
Type: cell-based
Settings: for NCI-60 screening: Log(GI50): log10 of GI50 in M; for NCI-60 screening: Log(RedIndex): log10 reductive index vs P-CC60

For COc1cc2cc(C(=O)N3CC(CCl)c4c3cc(OC(=O)N3CCN(C)C5CSSCC53)c3ccccc43)[nH]c2c(OC)c1OC (mixture of isomers) [Me-SS66C-CBI-TMI], the “NCI-60 screening: Log(GI50)” value (786-0 (RE) cell line) was -6.71, the “NCI-60 screening: Log(RedIndex)” value (786-0 (RE) cell line) was 0.94 and the GI50 (786-0 (RE) cell line, read-out: NCI-60 screening: Raw GI50) was 200 nM. For the same compound, the GI50 (786-0, read-out: GI50) was 200 nM, the “NCI-60 screening: Log(GI50)” value (A498 (RE) cell line) was -5.91 and the “NCI-60 screening: Log(RedIndex)” value (A498 (RE) cell line) was 0.35. For the same compound, the GI50 (A498, read-out: GI50) was 1200 nM, the GI50 (A549/ATCC, read-out: GI50) was 180 nM and the “NCI-60 screening: Log(GI50)” value (ACHN (RE) cell line) was -7.55. For the same compound, the “NCI-60 screening: Log(RedIndex)” value (ACHN (RE) cell line) was 1.24, the GI50 (ACHN (RE) cell line, read-out: NCI-60 screening: Raw GI50) was 28 nM and the GI50 (ACHN, read-out: GI50) was 28 nM. The GI50 (BT-549, read-out: GI50) was 170 nM, the “NCI-60 screening: Log(GI50)” value (CAKI-1 (RE) cell line) was -6.61 and the “NCI-60 screening: Log(RedIndex)” value (CAKI-1 (RE) cell line) was 0.78. The GI50 (CAKI-1 (RE) cell line, read-out: NCI-60 screening: Raw GI50) was 250 nM, the GI50 (CAKI-1, read-out: GI50) was 250 nM and the GI50 (CCRF-CEM, read-out: GI50) was 110 nM. For the same compound, the GI50 (COLO 205, read-out: GI50) was 330 nM, the “NCI-60 screening: Log(GI50)” value (DU-145 (PR) cell line) was -7.2 and the “NCI-60 screening: Log(RedIndex)” value (DU-145 (PR) cell line) was 0.86. For the same compound, the GI50 (DU-145, read-out: GI50) was 63 nM, the GI50 (EKVX, read-out: GI50) was 230 nM and the GI50 (HCC-2998, read-out: GI50) was 140 nM. It also gave a GI50 (HCT-15, read-out: GI50) of 250 nM, a GI50 (HCT-116, read-out: GI50) of 190 nM and a GI50 (HL-60(TB), read-out: GI50) of 52 nM. The GI50 (HOP-62, read-out: GI50) was 200 nM, the GI50 (HOP-92, read-out: GI50) was 240 nM and the GI50 (HT29, read-out: GI50) was 230 nM. For the same compound, the “NCI-60 screening: Log(GI50)” value (IGROV1 (OV) cell line) was -5.82, the “NCI-60 screening: Log(RedIndex)” value (IGROV1 (OV) cell line) was 0.18 and the GI50 (IGROV1, read-out: GI50) was 1500 nM. For the same compound, the GI50 (K-562, read-out: GI50) was 400 nM, the GI50 (KM12, read-out: GI50) was 1100 nM and the GI50 (LOX IMVI, read-out: GI50) was 170 nM. The GI50 (M14, read-out: GI50) was 250 nM, the GI50 (MALME-3M, read-out: GI50) was 210 nM and the GI50 (MCF7, read-out: GI50) was 28 nM. It also gave a GI50 (MDA-MB-435, read-out: GI50) of 840 nM, a GI50 (MDA-MB-468, read-out: GI50) of 160 nM and a GI50 (MOLT-4, read-out: GI50) of 70 nM. For the same compound, the GI50 (NCI-H23, read-out: GI50) was 45 nM, the GI50 (NCI-H226, read-out: GI50) was 1000 nM and the “NCI-60 screening: Log(GI50)” value (NCI-H460 (LC) cell line) was -7.39. For the same compound, the “NCI-60 screening: Log(RedIndex)” value (NCI-H460 (LC) cell line) was 1.1, the GI50 (NCI-H460, read-out: GI50) was 41 nM and the “NCI-60 screening: Log(GI50)” value (NCI-H522 (LC) cell line) was -6.84. The “NCI-60 screening: Log(RedIndex)” value (NCI-H522 (LC) cell line) was 1.07, the GI50 (NCI-H522 (LC) cell line, read-out: NCI-60 screening: Raw GI50) was 150 nM and the GI50 (NCI-H522, read-out: GI50) was 150 nM. For the same compound, the “NCI-60 screening: Log(GI50)” value (OVCAR-3 (OV) cell line) was -6.31, the “NCI-60 screening: Log(RedIndex)” value (OVCAR-3 (OV) cell line) was 0.63 and the GI50 (OVCAR-3, read-out: GI50) was 490 nM. The “NCI-60 screening: Log(GI50)” value (OVCAR-4 (OV) cell line) was -5.79, the “NCI-60 screening: Log(RedIndex)” value (OVCAR-4 (OV) cell line) was 0.16 and the GI50 (OVCAR-4, read-out: GI50) was 1600 nM. The “NCI-60 screening: Log(GI50)” value (OVCAR-5 (OV) cell line) was -6.55, the “NCI-60 screening: Log(RedIndex)” value (OVCAR-5 (OV) cell line) was 1.26 and the GI50 (OVCAR-5, read-out: GI50) was 280 nM. For the same compound, the “NCI-60 screening: Log(GI50)” value (OVCAR-8 (OV) cell line) was -6.82, the “NCI-60 screening: Log(RedIndex)” value (OVCAR-8 (OV) cell line) was 1.04 and the GI50 (OVCAR-8 (OV) cell line, read-out: NCI-60 screening: Raw GI50) was 150 nM. For the same compound, the GI50 (OVCAR-8, read-out: GI50) was 150 nM, the “NCI-60 screening: Log(GI50)” value (PC-3 (PR) cell line) was -6.45 and the “NCI-60 screening: Log(RedIndex)” value (PC-3 (PR) cell line) was 0.94. For the same compound, the GI50 (PC-3, read-out: GI50) was 360 nM, the GI50 (RPMI-8226, read-out: GI50) was 160 nM and the “NCI-60 screening: Log(GI50)” value (RXF 393 (RE) cell line) was -6.88. The “NCI-60 screening: Log(RedIndex)” value (RXF 393 (RE) cell line) was 0.9, the GI50 (RXF 393 (RE) cell line, read-out: NCI-60 screening: Raw GI50) was 130 nM and the GI50 (RXF 393, read-out: GI50) was 130 nM. For the same compound, the GI50 (SF-268, read-out: GI50) was 170 nM, the GI50 (SF-295, read-out: GI50) was 130 nM and the GI50 (SF-539, read-out: GI50) was 170 nM. The GI50 (SK-MEL-5, read-out: GI50) was 170 nM, the GI50 (SK-MEL-28, read-out: GI50) was 260 nM and the “NCI-60 screening: Log(GI50)” value (SK-OV-3 (OV) cell line) was -7.47. For the same compound, the “NCI-60 screening: Log(RedIndex)” value (SK-OV-3 (OV) cell line) was 1.8, the GI50 (SK-OV-3, read-out: GI50) was 34 nM and the “NCI-60 screening: Log(GI50)” value (SN12C (RE) cell line) was -6.69. The “NCI-60 screening: Log(RedIndex)” value (SN12C (RE) cell line) was 0.77, the GI50 (SN12C (RE) cell line, read-out: NCI-60 screening: Raw GI50) was 200 nM and the GI50 (SN12C, read-out: GI50) was 200 nM. The GI50 (SNB-19, read-out: GI50) was 220 nM, the GI50 (SR, read-out: GI50) was 37 nM and the GI50 (SW-620, read-out: GI50) was 260 nM. The GI50 (T-47D, read-out: GI50) was 290 nM, the “NCI-60 screening: Log(GI50)” value (TK-10 (RE) cell line) was -5.89 and the “NCI-60 screening: Log(RedIndex)” value (TK-10 (RE) cell line) was 0.34. The GI50 (TK-10, read-out: GI50) was 1300 nM.
